Results published in ChEMBL document CHEMBL5584250, “5-HT6 receptor neutral antagonists protect astrocytes: A lesson from 2-phenylpyrrole derivatives” (Eur J Med Chem, 2024).

Assays:
[1] = Drug metabolism in rat liver microsomes assessed as hydroxylation mediated metabolite formation by UPLC-MS analysis; type: ADME, Microsome
in vitro [2] = details: rat, microsomes
[3] = molecular target: 5-hydroxytryptamine receptor 2A (Homo sapiens, UniProt P28223); experiment: Displacement of [3H]-ketanserin from human 5-HT2A receptor extracted from CHO-K1 cell membrane by microbeta plate reader analysis; type: cell membranes
Chain of 5-hydroxytryptamine receptor 2A (P28223 whole entry): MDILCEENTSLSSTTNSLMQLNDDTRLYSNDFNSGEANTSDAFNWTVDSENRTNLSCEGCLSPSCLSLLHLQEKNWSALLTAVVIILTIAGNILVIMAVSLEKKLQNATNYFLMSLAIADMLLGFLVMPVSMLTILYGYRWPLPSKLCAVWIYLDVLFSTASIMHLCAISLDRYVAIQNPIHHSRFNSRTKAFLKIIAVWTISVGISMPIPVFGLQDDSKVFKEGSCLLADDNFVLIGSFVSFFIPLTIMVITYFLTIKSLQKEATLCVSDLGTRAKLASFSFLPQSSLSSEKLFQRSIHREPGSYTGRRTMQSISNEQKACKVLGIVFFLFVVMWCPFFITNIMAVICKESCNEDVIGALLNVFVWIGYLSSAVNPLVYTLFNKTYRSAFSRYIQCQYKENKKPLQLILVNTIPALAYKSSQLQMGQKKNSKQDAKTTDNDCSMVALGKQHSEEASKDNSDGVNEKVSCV

[4] = molecular target: 5-hydroxytryptamine receptor 7 (Homo sapiens, UniProt P34969); experiment: Displacement of [3H]-5-CT from human 5-HT7 receptor extracted from HEK293 cell membrane by microbeta plate reader analysis; type: cell membranes
Chain of 5-hydroxytryptamine receptor 7 (P34969 whole entry): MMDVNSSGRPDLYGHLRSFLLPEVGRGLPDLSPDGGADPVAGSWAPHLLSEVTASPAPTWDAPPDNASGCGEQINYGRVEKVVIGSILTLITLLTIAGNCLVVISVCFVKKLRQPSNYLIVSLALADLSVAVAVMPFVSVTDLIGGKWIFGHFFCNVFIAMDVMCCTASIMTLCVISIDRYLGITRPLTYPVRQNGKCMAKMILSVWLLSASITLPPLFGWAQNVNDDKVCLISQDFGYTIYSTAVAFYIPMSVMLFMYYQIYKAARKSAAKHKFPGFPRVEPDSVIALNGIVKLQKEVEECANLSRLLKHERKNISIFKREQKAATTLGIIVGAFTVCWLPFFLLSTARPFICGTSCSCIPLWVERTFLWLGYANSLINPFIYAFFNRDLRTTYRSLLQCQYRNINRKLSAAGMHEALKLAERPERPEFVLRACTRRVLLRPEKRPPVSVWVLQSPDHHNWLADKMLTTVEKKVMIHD

in vitro [5] = details: rat, microsomes; remark: listed apart in the source
D(2) dopamine receptor = D(2) dopamine receptor (Homo sapiens, UniProt P14416); experiment: Displacement of [3H]-raclopride from human D2L receptor extracted from HEK293 cell membrane by microbeta plate reader analysis; type: cell membranes
Chain of D(2) dopamine receptor (P14416 whole entry): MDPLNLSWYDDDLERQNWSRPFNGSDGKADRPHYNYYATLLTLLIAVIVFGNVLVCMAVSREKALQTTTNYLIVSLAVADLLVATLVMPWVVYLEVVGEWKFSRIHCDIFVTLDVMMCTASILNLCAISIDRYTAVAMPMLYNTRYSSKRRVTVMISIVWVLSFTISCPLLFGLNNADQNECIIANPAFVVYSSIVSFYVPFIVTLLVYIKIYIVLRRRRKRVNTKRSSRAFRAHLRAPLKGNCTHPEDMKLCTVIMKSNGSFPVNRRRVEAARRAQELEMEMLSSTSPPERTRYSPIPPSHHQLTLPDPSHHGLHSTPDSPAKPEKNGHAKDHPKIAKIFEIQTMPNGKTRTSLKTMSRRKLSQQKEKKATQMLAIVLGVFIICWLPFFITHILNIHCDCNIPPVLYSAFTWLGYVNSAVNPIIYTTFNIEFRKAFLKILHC

[6] = molecular target: 5-hydroxytryptamine receptor 6 (Homo sapiens, UniProt P50406)
Chain of 5-hydroxytryptamine receptor 6 (P50406 whole entry): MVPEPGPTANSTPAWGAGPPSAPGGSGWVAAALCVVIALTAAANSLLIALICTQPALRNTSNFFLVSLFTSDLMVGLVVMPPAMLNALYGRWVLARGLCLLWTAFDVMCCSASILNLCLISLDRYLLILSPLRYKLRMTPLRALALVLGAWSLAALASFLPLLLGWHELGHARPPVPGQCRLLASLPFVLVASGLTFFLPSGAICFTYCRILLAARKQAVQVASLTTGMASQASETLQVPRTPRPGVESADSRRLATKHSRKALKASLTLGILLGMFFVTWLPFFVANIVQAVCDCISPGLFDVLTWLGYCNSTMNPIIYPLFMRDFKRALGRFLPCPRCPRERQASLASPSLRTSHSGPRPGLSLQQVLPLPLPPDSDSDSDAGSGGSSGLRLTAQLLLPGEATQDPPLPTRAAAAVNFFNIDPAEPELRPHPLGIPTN
Description: Displacement of [3H]-LSD from human 5-HT6 receptor extracted from HEK293 cell membrane by microbeta plate reader analysis

[7] = molecular target: T1, 5-hydroxytryptamine receptor 1A (Homo sapiens, UniProt P08908); experiment: Displacement of [3H]-8-OH-DPAT from human 5-HT1A receptor extracted from HEK293 cell membrane by microbeta plate reader analysis; type: cell membranes
T1 sequence (P08908 whole entry): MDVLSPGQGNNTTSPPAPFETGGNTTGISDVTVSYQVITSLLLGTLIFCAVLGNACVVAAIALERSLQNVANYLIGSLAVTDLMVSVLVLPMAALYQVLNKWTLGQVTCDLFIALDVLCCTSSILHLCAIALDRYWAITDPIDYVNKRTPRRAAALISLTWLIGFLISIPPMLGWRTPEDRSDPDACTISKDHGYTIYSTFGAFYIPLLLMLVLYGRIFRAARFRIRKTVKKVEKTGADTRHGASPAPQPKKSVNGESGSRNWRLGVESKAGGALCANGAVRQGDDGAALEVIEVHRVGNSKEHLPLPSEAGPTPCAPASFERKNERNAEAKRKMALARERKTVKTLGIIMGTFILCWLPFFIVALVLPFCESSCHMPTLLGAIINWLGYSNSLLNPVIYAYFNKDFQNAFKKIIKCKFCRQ

[8] = Drug metabolism in rat liver microsomes by UPLC-MS analysis; type: ADME, Microsome
[9] = Cytotoxicity against human SH-SY5Y cells incubated for 3 hrs by MTT assay; type: toxicity, cell-based
[10] = Cytotoxicity against human astrocytes incubated for 3 hrs by MTT assay; type: toxicity, cell-based, Astrocyte
[11] = molecular target: hERG (KCNH2) potassium channel (Homo sapiens, UniProt Q12809); experiment: Inhibition of hERG potassium channel at 1 uM relative to control; type: toxicity
Chain of hERG (KCNH2) potassium channel (Q12809 whole entry): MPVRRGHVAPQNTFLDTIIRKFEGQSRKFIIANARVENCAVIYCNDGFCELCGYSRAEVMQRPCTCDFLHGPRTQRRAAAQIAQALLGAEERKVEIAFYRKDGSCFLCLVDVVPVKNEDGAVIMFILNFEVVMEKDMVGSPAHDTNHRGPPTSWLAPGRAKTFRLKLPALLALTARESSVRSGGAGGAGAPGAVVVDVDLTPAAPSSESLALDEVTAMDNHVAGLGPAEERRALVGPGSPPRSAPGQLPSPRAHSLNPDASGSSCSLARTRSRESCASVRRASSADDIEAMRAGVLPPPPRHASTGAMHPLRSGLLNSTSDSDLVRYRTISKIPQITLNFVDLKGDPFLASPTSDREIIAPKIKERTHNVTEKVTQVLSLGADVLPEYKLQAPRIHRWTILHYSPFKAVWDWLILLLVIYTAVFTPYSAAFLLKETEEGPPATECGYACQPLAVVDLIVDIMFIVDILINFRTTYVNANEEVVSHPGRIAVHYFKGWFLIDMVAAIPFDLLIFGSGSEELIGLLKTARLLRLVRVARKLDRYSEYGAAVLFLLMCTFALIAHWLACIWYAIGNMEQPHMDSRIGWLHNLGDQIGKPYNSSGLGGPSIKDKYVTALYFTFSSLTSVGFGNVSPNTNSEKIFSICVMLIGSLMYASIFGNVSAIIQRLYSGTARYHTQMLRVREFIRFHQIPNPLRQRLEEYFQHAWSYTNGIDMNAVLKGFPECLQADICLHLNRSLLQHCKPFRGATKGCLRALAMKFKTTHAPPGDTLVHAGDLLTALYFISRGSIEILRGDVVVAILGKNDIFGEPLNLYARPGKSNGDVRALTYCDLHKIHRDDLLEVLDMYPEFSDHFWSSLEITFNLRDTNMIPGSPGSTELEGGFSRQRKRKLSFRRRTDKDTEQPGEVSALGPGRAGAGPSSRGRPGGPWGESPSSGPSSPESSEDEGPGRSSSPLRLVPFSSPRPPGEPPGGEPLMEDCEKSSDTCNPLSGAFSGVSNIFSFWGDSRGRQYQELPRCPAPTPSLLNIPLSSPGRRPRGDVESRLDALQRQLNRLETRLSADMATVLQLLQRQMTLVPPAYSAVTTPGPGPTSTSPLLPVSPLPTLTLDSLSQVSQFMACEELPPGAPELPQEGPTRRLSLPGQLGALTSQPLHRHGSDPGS

CYP3A4 = CYP3A4 (Homo sapiens, UniProt P08684); experiment: Inhibition of CYP3A4 (unknown origin) at 10 uM relative to control; type: ADME
Chain of CYP3A4 (P08684 whole entry): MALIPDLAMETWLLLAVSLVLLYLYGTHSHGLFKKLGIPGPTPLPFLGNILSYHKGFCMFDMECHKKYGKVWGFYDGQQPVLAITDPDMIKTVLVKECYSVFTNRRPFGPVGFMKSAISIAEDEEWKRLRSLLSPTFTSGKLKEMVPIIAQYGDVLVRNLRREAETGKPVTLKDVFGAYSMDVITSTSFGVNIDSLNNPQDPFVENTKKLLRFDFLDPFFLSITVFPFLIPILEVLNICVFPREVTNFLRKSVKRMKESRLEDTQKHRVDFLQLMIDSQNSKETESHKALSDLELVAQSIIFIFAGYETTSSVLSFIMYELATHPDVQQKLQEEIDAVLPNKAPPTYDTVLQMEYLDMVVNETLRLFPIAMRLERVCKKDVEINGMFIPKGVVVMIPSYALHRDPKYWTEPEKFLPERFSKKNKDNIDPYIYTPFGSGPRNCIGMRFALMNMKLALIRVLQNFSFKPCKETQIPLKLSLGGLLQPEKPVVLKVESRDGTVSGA

[12] = Cytotoxicity against rat PC12 cells incubated for 3 hrs by MTT assay; type: toxicity, cell-based, PC-12
[13] = Cytotoxicity against mouse C8D1A cells incubated for 3 hrs by MTT assay; type: toxicity, cell-based, C8-D1A

Structure (SMILES) | Drug metabolism [1] | microsomal CLint at 1 h, 10 µM (in vitro [2]) | Ki [3] | Ki [4] | half-life at 1 h, 10 µM (in vitro [5]) | Ki (D(2) dopamine receptor) | Ki [6] | Ki [7] | Drug metabolism [8] | IC50 at 3 h [9] | IC50 at 3 h [10] | inhibition at 1 µM [11] | inhibition at 10 µM (CYP3A4) | IC50 at 3 h [12] | IC50 at 3 h [13]
O=S(=O)(c1cccc(NC2CCNCC2)c1)n1cccc1-c1ccccc1 | Metabolite_Detected | 20.6 µL/min/mg | 1540 nM | 1.99 µM | 101 min | 10.8 µM | 4 nM | 40600 nM | – | – | – | – | – | – | –
COc1cccc(-c2cccn2S(=O)(=O)c2cccc(N3CCNCC3)c2)c1 | – | 56.7 µL/min/mg | 655 nM | 11.6 µM | 36.7 min | 5.2 µM | 1 nM | 916 nM | Metabolite_Notdetected | – | – | – | – | – | –
O=C(NC1CCNCC1)c1ccn(S(=O)(=O)c2cccc(Cl)c2)c1-c1cccc(F)c1 | – | – | 10600 nM | 84 µM | – | 7.69 µM | – | 68600 nM | – | – | – | – | – | – | –
O=S(=O)(c1ccccc1)n1cccc1-c1cccc(N2CCNCC2)c1 | Metabolite_Detected | 109 µL/min/mg | 15900 nM | 1.32 µM | 15.3 min | 2.7 µM | 27 nM | 2470 nM | – | – | – | – | – | – | –
O=S(=O)(c1cccc(N2CCNCC2)c1)n1cccc1-c1ccccc1 | Metabolite_Detected | 24.9 µL/min/mg | 412 nM | 12.3 µM | 83.6 min | 2.17 µM | 1 nM | 755 nM | – | – | – | – | – | – | –
O=S(=O)(c1cccc(N2CCNCC2)c1)n1cccc1-c1cccc(F)c1 | – | 32.4 µL/min/mg | 2510 nM | 11.5 µM | 49.3 min | 4.33 µM | 1 nM | 1840 nM | Metabolite_Notdetected | 18.5 µM | 39.3 µM | 8% | 94% | 25.6 µM | 37.4 µM
